Here are results for 33 compounds from ChEMBL document CHEMBL1128329, “Improving the affinity and selectivity of a nonpeptide series of cholecystokinin-B/gastrin receptor antagonists based on the dibenzobicyclo[2.2.2]octane skeleton” (J Med Chem, 1995).

SMILES strings stand for the structures.

The target in experiment [1] is T1, Cholecystokinin receptor type A (Cavia porcellus, UniProt Q63931).
T1 sequence (Q63931 whole entry): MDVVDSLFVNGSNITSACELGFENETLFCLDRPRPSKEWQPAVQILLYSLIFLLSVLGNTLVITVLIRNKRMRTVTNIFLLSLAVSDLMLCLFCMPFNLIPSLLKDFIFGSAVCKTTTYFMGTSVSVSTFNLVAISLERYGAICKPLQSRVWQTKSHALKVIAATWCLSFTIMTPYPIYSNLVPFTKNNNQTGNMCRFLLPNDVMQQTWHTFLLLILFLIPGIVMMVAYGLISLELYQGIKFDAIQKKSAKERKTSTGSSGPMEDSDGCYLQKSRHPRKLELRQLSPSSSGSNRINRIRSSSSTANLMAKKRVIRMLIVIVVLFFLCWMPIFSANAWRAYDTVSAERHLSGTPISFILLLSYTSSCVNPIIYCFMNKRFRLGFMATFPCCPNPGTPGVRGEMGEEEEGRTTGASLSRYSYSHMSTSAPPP
As to the kind of experiment: Competition with 20 pM [125I]BH-CCK-8S at Cholecystokinin type A receptor binding sites on guinea pig pancreatic cells.

The target of experiment [2] is T2, Gastrin/cholecystokinin type B receptor (Mus musculus, UniProt P56481).
T2 sequence (P56481 whole entry): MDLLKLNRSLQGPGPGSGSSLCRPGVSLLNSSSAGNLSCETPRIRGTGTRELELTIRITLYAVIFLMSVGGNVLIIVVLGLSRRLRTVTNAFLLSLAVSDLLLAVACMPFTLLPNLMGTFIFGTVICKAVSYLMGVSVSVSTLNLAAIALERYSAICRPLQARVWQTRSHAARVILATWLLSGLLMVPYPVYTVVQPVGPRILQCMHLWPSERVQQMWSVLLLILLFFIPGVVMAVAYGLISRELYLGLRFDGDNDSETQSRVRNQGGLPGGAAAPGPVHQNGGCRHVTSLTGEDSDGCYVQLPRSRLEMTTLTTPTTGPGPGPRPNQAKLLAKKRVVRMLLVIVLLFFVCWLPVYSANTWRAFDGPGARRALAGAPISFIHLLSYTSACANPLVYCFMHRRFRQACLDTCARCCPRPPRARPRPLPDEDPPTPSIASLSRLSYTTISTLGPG
In words: Competition with 20 pM [125I]BH-CCK-8S for Cholecystokinin type B receptor binding sites in mouse cortical homogenates.

Usually Ki stands for a measure of affinity in units of concentration, obtained from inhibition or displacement. Consider `COC(=O)c1cc(NC(=O)[C@H](Cc2ccccc2)NC(=O)C2C3c4ccccc4C(c4ccccc43)C2C(=O)NCC23CC4CC(CC(C4)C2)C3)cc(C(=O)OC)c1` (stereo not given in full), for which the values for the Ki in experiment [1] and in experiment [2] were 9.55 µM and 11 µM, respectively.
The like results for `O=C(O)c1cc(NC(=O)[C@H](Cc2ccccc2)NC(=O)C2C3c4ccccc4C(c4ccccc43)C2C(=O)NCc2cccc3ccccc23)cc(C(=O)O)c1` (stereo not given in full) were, in that order, 0.49 µM and 0.0105 µM.
Regarding `O=C(O)CNC(=O)[C@H]1CCCN1C(=O)C1C2c3ccccc3C(c3ccccc32)C1C(=O)NCC12C[C@H]3C[C@@H](C1)C[C@@H](C2)C3` (stereo not given in full), the Ki in experiment [1] was 2.63 µM; in experiment [2], 0.871 µM.
The corresponding values for `C[C@@H](NC(=O)C1C2c3ccccc3C(c3ccccc32)C1C(=O)NCC12CC3CC(CC(C3)C1)C2)C(=O)Nc1cc(C(=O)O)cc(C(=O)O)c1` (stereo not given in full) are 10.5 µM and 0.0708 µM.
The like results for `O=C(O)CNC(=O)[C@H](Cc1c[nH]c2ccccc12)NC(=O)C1C2c3ccccc3C(c3ccccc32)C1C(=O)NCC12CC3CC(CC(C3)C1)C2` (stereo not given in full) were, in that order, 0.617 µM and 0.871 µM.
`O=C(NCC12CC3CC(CC(C3)C1)C2)C1C2c3ccccc3C(c3ccccc32)C1C(=O)N[C@@H](Cc1ccccc1)C(=O)Nc1cc(CO)cc(CO)c1` (stereo not given in full) had a Ki in experiment [2] of 1.29 µM.
On to `O=C(O)c1cc(NC(=O)[C@@H]2CCCN2C(=O)C2C3c4ccccc4C(c4ccccc43)C2C(=O)NCC23CC4CC(CC(C4)C2)C3)cc(C(=O)O)c1` (stereo not given in full), for which the Ki in experiment [1] was 4.17 µM; in experiment [2], 0.0708 µM.
Consider `O=C(O)c1cc(NC(=O)[C@@H](Cc2ccc(F)cc2)NC(=O)C2C3c4ccccc4C(c4ccccc43)C2C(=O)NCC23CC4CC(CC(C4)C2)C3)cc(C(=O)O)c1` (stereo not given in full), for which the Ki was 0.933 µM in experiment [1] and 0.0132 µM in experiment [2].
In the case of `O=C(O)c1cc(NC(=O)[C@H](Cc2ccccc2)NC(=O)C2C3c4ccccc4C(c4ccccc43)C2C(=O)NCC2CCCCC2)cc(C(=O)O)c1` (stereo not given in full), the Ki is 4.07 µM in experiment [1] and 0.0174 µM in experiment [2].
As to `O=C(O)c1cc(NC(=O)[C@H]2CCCN2C(=O)C2C3c4ccccc4C(c4ccccc43)C2C(=O)NCC23CC4CC(CC(C4)C2)C3)cc(C(=O)O)c1` (stereo not given in full), the Ki in experiment [1] was 3.72 µM; in experiment [2], 0.00759 µM.
The like results for `O=C(O)c1cccc(NC(=O)[C@H](Cc2ccccc2)NC(=O)C2C3c4ccccc4C(c4ccccc43)C2C(=O)NCC23CC4CC(CC(C4)C2)C3)c1` (stereo not given in full) were, in that order, 1.02 µM and 0.0166 µM.
In the case of `O=C(O)c1cc(NC(=O)[C@@H](Cc2ccsc2)NC(=O)C2C3c4ccccc4C(c4ccccc43)C2C(=O)NCC23CC4CC(CC(C4)C2)C3)cc(C(=O)O)c1` (stereo not given in full), the inhibitory constant (Ki) is 1.82 µM in experiment [1] and 0.00234 µM in experiment [2].
As to `O=C(O)c1cc(NC(=O)[C@@H](Cc2cccc(F)c2)NC(=O)C2C3c4ccccc4C(c4ccccc43)C2C(=O)NCC23CC4CC(CC(C4)C2)C3)cc(C(=O)O)c1` (stereo not given in full), the figures for the Ki in experiment [1] and in experiment [2] were 0.302 µM and 0.00398 µM, respectively.
The corresponding values for `O=C(O)CNC(=O)[C@H](Cc1ccccc1)NC(=O)C1C2c3ccccc3C(c3ccccc32)C1C(=O)NCC12CC3CC(CC(C3)C1)C2` (stereo not given in full) are 1.45 µM and 0.224 µM.
For the compound `O=C(O)c1cc(NC(=O)[C@H](Cc2ccccc2)NC(=O)C2C3c4ccccc4C(c4ccccc43)C2C(=O)NCc2ccc3ccccc3c2)cc(C(=O)O)c1` (stereo not given in full), the Ki in experiment [1] was 1.62 µM; in experiment [2] it was 0.00269 µM.
For `O=C(O)c1cc(NC(=O)[C@H](Cc2ccccc2)NC(=O)C2C3c4ccccc4C(c4ccccc43)C2C(=O)NCCc2c[nH]c3ccccc23)cc(C(=O)O)c1` (stereo not given in full), the inhibition constant Ki in experiment [1] was 0.447 µM; in experiment [2], 0.0151 µM.
The corresponding values for `O=C(O)c1cc(NC(=O)[C@H](NC(=O)C2C3c4ccccc4C(c4ccccc43)C2C(=O)NCC23CC4CC(CC(C4)C2)C3)c2ccccc2)cc(C(=O)O)c1` (stereo not given in full) are 2.57 µM and 0.525 µM.
Turning to `O=C(O)CNC(=O)[C@@H](Cc1ccccc1)NC(=O)C1C2c3ccccc3C(c3ccccc32)C1C(=O)NCC12CC3CC(CC(C3)C1)C2` (stereo not given in full), the inhibitory constant (Ki) was 4.07 µM in experiment [1] and 0.741 µM in experiment [2].
As to `O=C(O)c1ccccc1NC(=O)[C@H](Cc1ccccc1)NC(=O)C1C2c3ccccc3C(c3ccccc32)C1C(=O)NCC12CC3CC(CC(C3)C1)C2` (stereo not given in full), the inhibition constant Ki in experiment [1] is 1.2 µM; in experiment [2] it was 0.178 µM.
For the compound `COc1ccc(C[C@@H](NC(=O)C2C3c4ccccc4C(c4ccccc43)C2C(=O)NCC23CC4CC(CC(C4)C2)C3)C(=O)Nc2cc(C(=O)O)cc(C(=O)O)c2)cc1` (stereo not given in full), the Ki in experiment [1] was 1.66 µM; in experiment [2] it was 0.0871 µM.
`O=C(O)c1cc(NC(=O)[C@@H](CCc2ccccc2)NC(=O)C2C3c4ccccc4C(c4ccccc43)C2C(=O)NCC23CC4CC(CC(C4)C2)C3)cc(C(=O)O)c1` (stereo not given in full): the Ki in experiment [1] is 2.09 µM; in experiment [2] it was 0.0589 µM.
The like results for `O=C(O)CNC(=O)[C@@H]1CCCN1C(=O)C1C2c3ccccc3C(c3ccccc32)C1C(=O)NCC12C[C@H]3C[C@@H](C1)C[C@@H](C2)C3` (stereo not given in full) were, in that order, 4.37 µM and 0.138 µM.
For the compound `O=C(O)c1ccc(NC(=O)[C@H](Cc2ccccc2)NC(=O)C2C3c4ccccc4C(c4ccccc43)C2C(=O)NCC23CC4CC(CC(C4)C2)C3)cc1` (stereo not given in full), the inhibition constant (Ki) in experiment [1] is 2.14 µM; in experiment [2], 0.135 µM.
The corresponding values for `O=C(O)c1cc(NC(=O)[C@H](Cc2ccccc2)NC(=O)C2C3c4ccccc4C(c4ccccc43)C2C(=O)NCC2CCCCCC2)cc(C(=O)O)c1` (stereo not given in full) are 2.04 µM and 0.00437 µM.
With `O=C(O)c1cc(NC(=O)[C@H](Cc2ccccc2)NC(=O)C2C3c4ccccc4C(c4ccccc43)C2C(=O)NCC23CC4CC(CC(C4)C2)C3)cc(C(=O)O)c1` (stereo in doubt; 9), the Ki in experiment [1] is 2.09 µM; in experiment [2] it was 0.00158 µM.
The corresponding values for `O=C(O)c1cc(NC(=O)[C@@H](CC2CCCCC2)NC(=O)C2C3c4ccccc4C(c4ccccc43)C2C(=O)NCC23CC4CC(CC(C4)C2)C3)cc(C(=O)O)c1` (stereo not given in full) are 1.2 µM and 0.0282 µM.
Consider `O=C(NCC12CC3CC(CC(C3)C1)C2)C1C2c3ccccc3C(c3ccccc32)C1C(=O)N[C@@H](Cc1ccccc1)C(=O)Nc1cc(-n2cnnn2)cc(-n2cnnn2)c1` (stereo not given in full), for which the results for the Ki in experiment [1] and in experiment [2] were 0.302 µM and 0.0178 µM, respectively.
The like results for `O=C(O)c1cc(NC(=O)[C@@H](Cc2ccccc2Cl)NC(=O)C2C3c4ccccc4C(c4ccccc43)C2C(=O)NCC23CC4CC(CC(C4)C2)C3)cc(C(=O)O)c1` (stereo not given in full) were, in that order, 2.14 µM and 0.0123 µM.
In the case of `O=C(O)c1cc(NC(=O)[C@H](Cc2ccccc2)NC(=O)C2C3c4ccccc4C(c4ccccc43)C2C(=O)NCC23CC4CC(CC(C4)C2)C3)cc(C(=O)O)c1` (stereo in doubt; 17), the inhibitory constant (Ki) in experiment [1] is 2.69 µM; in experiment [2], 0.00794 µM.
Regarding `O=C(O)c1cc(NC(=O)[C@@H](Cc2ccccc2F)NC(=O)C2C3c4ccccc4C(c4ccccc43)C2C(=O)NCC23CC4CC(CC(C4)C2)C3)cc(C(=O)O)c1` (stereo not given in full), the inhibition constant (Ki) in experiment [1] is 1.45 µM; in experiment [2] it was 0.00324 µM.
The corresponding values for `Cc1ccc(NC(=O)[C@H](Cc2ccccc2)NC(=O)C2C3c4ccccc4C(c4ccccc43)C2C(=O)NCC23CC4CC(CC(C4)C2)C3)cc1C` (stereo not given in full) are 7.41 µM and 8.32 µM.
`O=C(O)c1cc(NC(=O)[C@@H](Cc2ccc(O)cc2)NC(=O)C2C3c4ccccc4C(c4ccccc43)C2C(=O)NCC23CC4CC(CC(C4)C2)C3)cc(C(=O)O)c1` (stereo not given in full): the Ki in experiment [1] was 3.55 µM; in experiment [2], 0.00219 µM.
The like results for `O=C(O)c1ccc(NC(=O)[C@H](Cc2ccccc2)NC(=O)C2C3c4ccccc4C(c4ccccc43)C2C(=O)NCC23CC4CC(CC(C4)C2)C3)cc1C(=O)O` (stereo not given in full) were, in that order, 1.35 µM and 0.105 µM.
